Reference: BindingDB's records for doi:10.1016/j.bmcl.2007.04.110 (Vernalis (R&D), 2007)

Molecular target: Cyclin-A2/Cyclin-dependent kinase 2 (Homo sapiens, UniProt P24941)
Test: CDK Inhibition Assay
Conditions: pH 7.5; 22 °C
Method: In vitro kinase assay using purified CDK2/Cyclin A was incubated at room temperature with substrate, and test compounds in the presence of 100 uM ATP/ [gamma-33P] ATP. Assays were performed in 96-well polypropylene plates. 33P incorporation into substrate was measured using a scintillation counter.

## NS(=O)(=O)c1ccc(-c2ccc(/C=c3\sc4nc5ccccc5n4c3=O)o2)cc1 [4-(5-{[(4Z)-3-oxo-5-thia-2,7-diazatricyclo[6.4.0.0^{2,6}]dodeca-1(12),6,8,10-tetraen-4-ylidene]methyl}furan-2-yl)benzene-1-sulfonamide]
  IC50: 760 nM
